Measurements reported in publication PMC10974052, “Synthesis, Computational Study, and In Vitro α-Glucosidase Inhibitory Action of 1,3,4-Thiadiazole Derivatives of 3-Aminopyridin-2(1H)-ones” (Pharmaceuticals, 2024).

Columns and labels:
α-glucosidase = α-glucosidase (Saccharomyces cerevisiae, UniProt P53341); assay: In vitro α-glucosidase inhibition assay (p-NPG hydrolysis, 405 nm); type: biochemical; set-up: inhibition: dose or concentration left out as unconfirmed; conditions: mean ± standard error of the mean, triplicate; for inhibition: read-out: The Degree of Inhibition of α-Glucosidase Activity
Description: Antidiabetic activity was assessed by the degree of inhibition of α-glucosidase activity by the test substances.
The study of the degree of α-glucosidase activity inhibition by the test compounds was performed using a standard method with minor modifications.
Study of the degree of inhibition of α-glucosidase activity by test compounds [25].
The principle of the method is as follows: the α-glucosidase enzyme hydrolyzes 4-Nitrophenyl α-D-glucopyranoside to form a colorimetric product (405 nm), the concentration of which is proportional to the α-glucosidase activity. […] The resulting mixture was incubated for 15 min at +37 °C, then 200 μL of a solution of 4-Nitrophenyl α-D-glucopyranoside (p-Nitrophenyl α-D-glucopyranoside, P-NPG) (5 mM) was added, and then the mixture was incubated at +37 °C for 20 min. Then, the reaction was stopped by adding 500 μL of sodium carbonate (0.1 M). A solution of α-glucosidase (1 U/mL) was used as a blank. We used 200 μL of DMSO in triplicate as a negative control. […] At the same time, a negative control was set without addition of test compounds. All samples were studied in triplicate. Inhibitory activity was expressed as a percentage (%) according to the degree of inhibition of α-glucosidase in comparison with the negative control. It was calculated by the following formula:
Inhibitory activity (%) = (1 − As/Ac)∗100%, where As is the optical density of the test compound, and Ac is the optical density of control.
The IC50 was determined from the graph of enzyme activity changes depending on the sample concentration.
Statistical processing of the results was carried out using the “Excel 365 v2401” program. […] The α-amylase and α-glucosidase enzymes determine the extent to which glucose enters the bloodstream from the gastrointestinal tract. Inhibition of these enzymes can be useful for lowering postprandial glucose levels.

Sequence of α-glucosidase (P53341 whole entry): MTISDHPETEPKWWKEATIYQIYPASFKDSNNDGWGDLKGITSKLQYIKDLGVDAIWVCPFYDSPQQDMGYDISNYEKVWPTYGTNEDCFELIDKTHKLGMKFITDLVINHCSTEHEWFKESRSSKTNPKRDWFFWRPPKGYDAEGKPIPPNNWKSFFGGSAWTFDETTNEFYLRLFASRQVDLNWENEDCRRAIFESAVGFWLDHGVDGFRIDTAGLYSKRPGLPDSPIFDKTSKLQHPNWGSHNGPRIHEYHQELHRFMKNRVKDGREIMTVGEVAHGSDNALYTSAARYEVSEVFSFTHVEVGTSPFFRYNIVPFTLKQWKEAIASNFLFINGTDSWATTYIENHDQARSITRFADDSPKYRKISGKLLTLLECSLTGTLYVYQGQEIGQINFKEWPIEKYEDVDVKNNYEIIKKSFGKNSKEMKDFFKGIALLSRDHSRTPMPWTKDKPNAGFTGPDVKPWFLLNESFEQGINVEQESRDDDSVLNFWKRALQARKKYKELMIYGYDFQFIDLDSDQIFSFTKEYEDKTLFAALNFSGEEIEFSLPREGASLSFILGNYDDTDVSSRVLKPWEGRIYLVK

Row | SMILES | inhibition (α-glucosidase) [%] | melting point [°C] | also measured
1 | Cc1cc(-c2cccs2)c(NC(=O)c2nnc(CCCC(=O)O)s2)c(=O)[nH]1 [7′c] | 93.9 ± 0.4 | – | –
2 | Cc1cc(C)c(NC(=O)c2nnc(CCCC(=O)O)s2)c(=O)[nH]1 [7′a] | 34.8 ± 4.2 | – | –
3 | Cc1cc(-c2cccs2)c(NC(=O)c2nnc(CCCC(=O)O)s2)c(=O)[nH]1 [7c, 4-(5-((6-Methyl-2-oxo-4-(thiophen-2-yl)-1,2-dihydropyridin-3-yl)carbamoyl)-1,3,4-thiadiazol-2-yl)butanoic acid] | – | 197 to 200 | –
4 | Cc1cc(-c2ccccc2)c(NC(=O)c2nnc(CCCC(=O)O)s2)c(=O)[nH]1 [7′b] | 95 ± 0.2 | – | –
5 | Cc1cc(C)c(NC(=O)c2nnc(CCC(=O)O)s2)c(=O)[nH]1 [5′a] | 36.3 ± 4.8 | – | –
6 | Cc1cc(C)c(NC(=O)c2nnc(-c3ccccc3C(=O)O)s2)c(=O)[nH]1 [9a, 2-(5-((4,6-Dimethyl-2-oxo-1,2-dihydropyridin-3-yl)carbamoyl)-1,3,4-thiadiazol-2-yl)benzoic acid] | – | 315 to 318 | –
7 | Cc1cc(-c2ccccc2)c(NC(=O)c2nnc(-c3ccccc3C(=O)O)s2)c(=O)[nH]1 [9′b] | – | – | inhibition at 15000 µM (α-glucosidase; read-out: The Degree of Inhibition of α-Glucosidase Activity, tested compounds at a concentration of 15 mM (Table 1 title)): 95%
8 | Cc1cc(-c2cccs2)c(NC(=O)c2nnc(/C=C/C(=O)O)s2)c(=O)[nH]1 [8′c] | 8 ± 3 | – | –
9 | Cc1cc(C)c(NC(=O)c2nnc(-c3ccccc3C(=O)O)s2)c(=O)[nH]1 [9′a] | 33.6 ± 6.1 | – | –
10 | Cc1cc(C)c(NC(=O)c2nnc(/C=C/C(=O)O)s2)c(=O)[nH]1 [8′a] | 14 ± 3 | – | –
11 | Cc1cc(-c2ccccc2)c(NC(=O)c2nnc(CCC(=O)O)s2)c(=O)[nH]1 [5′b] | 72.4 ± 2.3 | – | –
12 | Cc1cc(-c2cccs2)c(NC(=O)c2nnc(CCC(=O)O)s2)c(=O)[nH]1 [5′c] | 38.3 ± 2.4 | – | –
13 | Cc1cc(C)c(NC(=O)c2nnc(CCCC(=O)O)s2)c(=O)[nH]1 [7a, 4-(5-((4,6-Dimethyl-2-oxo-1,2-dihydropyridin-3-yl)carbamoyl)-1,3,4-thiadiazol-2-yl)butanoic acid] | – | 248 to 250 | –
14 | Cc1cc(-c2ccccc2)c(NC(=O)c2nnc(CCCC(=O)O)s2)c(=O)[nH]1 [7b, 4-(5-((6-Methyl-2-oxo-4-phenyl-1,2-dihydropyridin-3-yl)carbamoyl)-1,3,4-thiadiazol-2-yl)butanoic acid] | – | 243 to 246 | –
15 | Cc1cc(-c2cccs2)c(NC(=O)c2nnc(-c3ccccc3C(=O)O)s2)c(=O)[nH]1 [9′c] | 21 ± 2.2 | – | –
16 | Cc1cc(C)c(NC(=O)c2nnc(/C=C/C(=O)O)s2)c(=O)[nH]1 [8a, (E)-3-(5-((4,6-Dimethyl-2-oxo-1,2-dihydropyridin-3-yl)carbamoyl)-1,3,4-thiadiazol-2-yl)acrylic acid] | – | 261 to 263 | –
17 | Cc1cc(-c2ccccc2)c(NC(=O)c2nnc(-c3ccccc3C(=O)O)s2)c(=O)[nH]1 [9b, 2-(5-((6-Methyl-2-oxo-4-phenyl-1,2-dihydropyridin-3-yl)carbamoyl)-1,3,4-thiadiazol-2-yl)benzoic acid] | – | 176 to 180 | –
18 | Cc1cc(-c2cccs2)c(NC(=O)c2nnc(-c3ccccc3C(=O)O)s2)c(=O)[nH]1 [9c, 2-(5-((6-Methyl-2-oxo-4-(thiophen-2-yl)-1,2-dihydropyridin-3-yl)carbamoyl)-1,3,4-thiadiazol-2-yl)benzoic acid] | – | 275 to 277 | –
19 | Cc1cc(-c2cccs2)c(NC(=O)c2nnc(/C=C/C(=O)O)s2)c(=O)[nH]1 [8c, (E)-3-(5-((6-Methyl-2-oxo-4-(thiophen-2-yl)-1,2-dihydropyridin-3-yl)carbamoyl)-1,3,4-thiadiazol-2-yl)acrylic acid] | – | 247 to 250 | –
20 | Cc1cc(-c2ccccc2)c(NC(=O)c2nnc(/C=C/C(=O)O)s2)c(=O)[nH]1 [8b, (E)-3-(5-((6-Methyl-2-oxo-4-phenyl-1,2-dihydropyridin-3-yl)carbamoyl)-1,3,4-thiadiazol-2-yl)acrylic acid] | – | 199 to 202 | –
21 | C[C@H]1O[C@H](O[C@H]2[C@H](O)[C@@H](O)[C@@H](O[C@H]3[C@H](O)[C@@H](O)C(O)O[C@@H]3CO)O[C@@H]2CO)[C@H](O)[C@@H](O)[C@@H]1N[C@H]1C=C(CO)[C@@H](O)[C@H](O)[C@H]1O (stereo partly shown) [Acarbose, reference compound] | – | – | The Degree of Inhibition of α-Glucosidase Activity (α-glucosidase; tested compounds at a concentration of 15 mM (Table 1 title)): 49.5 ± 1.8%
22 | Cc1cc(-c2ccccc2)c(NC(=O)c2nnc(/C=C/C(=O)O)s2)c(=O)[nH]1 [8′b] | 68.2 ± 4.7 | – | –
